This note sets out measurements from patent US20220289732A1, “HETEROCYCLIC WDR5 INHIBITORS AS ANTI-CANCER COMPOUNDS” (NOVARTIS AG, priority 2019, published 2022).

pIC50: −log10 of the molar value.

The target of experiment [1] is wild type MLL1 four-member complex (MLL1-4C) (Homo sapiens, UniProt P61964). Description: MLL1 LC-MS assay (SAH production). As to conditions: read-out: (b) MLL LCMS Peptide Val.v.1 Qualified AC50. It is filed as biochemical. The gist of the method: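 SAH formation, measured by LC-MS/MS after a TFA quench containing d4-SAH, was normalised to no-compound and no-enzyme controls and fitted to a dose-response curve for IC50. Reactions ran 120 min at rt (pH 8.0 Tris buffer) with final 30 nM MLL1 four-member complex, 2.5 μM SAM and 10 μM biotinylated H3[1-21] peptide, after a 20-min enzyme/SAM-compound preincubation.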

The subject of experiment [2] is MV4-11 cells. Kind of experiment: MV4-11 6-day cell growth CTG (CellTiter-Glo) assay. As to conditions: Homo sapiens, MV4-11, 144 h, 6 days, read-out: (c) MLL/WDR5 cell proliferation assay//MLL/WDR5 proliferation MV4:11 Qualified AC50. It is filed as cell-based. The procedure, abridged: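 IC50 comes from a dose-response fit of % inhibition relative to DMSO controls, with viable cells measured by CellTiter-Glo luminescence. Compounds were tested over 12 points (1:3, starting at 50 μM final) on MV4-11 cells plated at 300/well and grown 6 days.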

The target in experiment [3] is WDR5 (Homo sapiens, UniProt P61964). Description: WDR5 HTRF binding assay. As to conditions: read-out: (a) WDR5 HTRF Pep Val v.1[Inhibitor/IC50]Qualified AC50. The procedure, abridged:
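In this HTRF displacement format, biotinylated MLL1 WIN peptide (3762-3773, 20 nM) binds WDR5 (6 nM) in 25 mM Hepes pH 7.5 with 100 mM NaCl, 2 mM DTT and 0.1% BSA for 20 min at rt. Detection used streptavidin-APC/anti-His-Eu for 1 hr. IC50 came from dose-response fits of normalized signal; 15 nM biotin-PEG-His peptide served as counter assay.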
Background: In TR-FRET formats the signal depends on donor and acceptor labels being close together.

In the case of `CCOc1cc(C(C)N2CCc3c(cc(Cn4ccnc4C)cc3-c3cn(C)nc3C)C2=O)ncc1C#N` (racemic) [Example 261, 6-(1-(5-(1,3-dimethyl-1H-pyrazol-4-yl)-7-((2-methyl-1H-imidazol-1-yl)methyl)-1-oxo-3,4-dihydroisoquinolin-2(1H)-yl)ethyl)-4-ethoxynicotinonitrile], the AC50 in experiment [1] and in experiment [2] was 10 to 1000 nM each time. Also, the pIC50 in experiment [3] was more than 8.00.

As to `CCOc1cc(CN2CCc3c(cc(CCN(C)CC)cc3-c3cn(C)c(=O)cc3C(F)(F)F)C2=O)ncc1C#N` [Example 196, 4-ethoxy-6-((7-(2-(ethyl(methyl)amino)ethyl)-5-(1-methyl-6-oxo-4-(trifluoromethyl)-1,6-dihydropyridin-3-yl)-1-oxo-3,4-dihydroisoquinolin-2(1H)-yl)methyl)nicotinonitrile], the AC50 in experiment [1] and in experiment [2] was 10 to 1000 nM each time. The pIC50 in experiment [3] is 6.00 to 8.00.

Take `CCOc1cc([C@H](C)N2CCc3c(CN4CC(F)(F)C4)cc(Cn4ccnc4NC)cc3C2=O)ncc1C#N` [Example 40, (S)-6-(1-(5-((3,3-difluoroazetidin-1-yl)methyl)-7-((2-(methylamino)-1H-imidazol-1-yl)methyl)-1-oxo-3,4-dihydroisoquinolin-2(1H)-yl)ethyl)-4-ethoxynicotinonitrile]: the AC50 in experiment [1] and in experiment [2] was 10 to 1000 nM in each case. Further, the pIC50 in experiment [3] is 6.00 to 8.00.

Turning to `CNc1nccn1Cc1cc2c(c(-c3cc(CO)cnc3Cl)c1)CCN(Cc1cc(OC)c(F)cn1)C2=O` [Example 68, 5-(2-chloro-5-(hydroxymethyl)pyridin-3-yl)-2-((5-fluoro-4-methoxypyridin-2-yl)methyl)-7-((2-(methylamino)-1H-imidazol-1-yl)methyl)-3,4-dihydroisoquinolin-1(2H)-one], the AC50 in experiment [1] and in experiment [2] was 10 to 1000 nM each time. The pIC50 in experiment [3] is 6.00 to 8.00.

Take `CNc1nccn1Cc1cc2c(c(-c3cc(CO)cnc3Cl)c1)CCN([C@@H](C)c1ccc(F)c(OC)c1)C2=O` [Example 56, (S)-5-(2-chloro-5-(hydroxymethyl)pyridin-3-yl)-2-(1-(4-fluoro-3-methoxyphenyl)ethyl)-7-((2-(methylamino)-1H-imidazol-1-yl)methyl)-3,4-dihydroisoquinolin-1(2H)-one]: the AC50 in experiment [1] and in experiment [2] was 10 to 1000 nM in each case. Further, the pIC50 in experiment [3] was 6.00 to 8.00.
